The values below come from article PMC4168161, “A novel approach for the discovery of chemically diverse anti-malarial compounds targeting the Plasmodium falciparum Coenzyme A synthesis pathway” (Malaria Journal, 2014).

Data set [1] has as its system HEK293 cells. Kind of data set: HEK293 viability assay (resazurin). In kind it is cell-based, human. The following applies: HEK293, 72 hr, top concentration 40 μM, n = 3. As to the method:
(§1) To assess cytotoxicity of compounds in dose response, a resazurin-based assay was utilized to determine cell viability. In brief, HEK293 cells were grown in DMEM medium (Life Technologies) containing 10% foetal calf serum (FCS; Gibco). Cells were trypsinized, counted and seeded at 2,000 cells per well in 45 μl media into TC-treated 384-well plates (Falcon) and left to adhere overnight at 37°C, 5% CO2 and 95% humidity.
(§2) Test compounds were prepared as described above, to give a top final test concentration of 40 μM, 0.4% DMSO. Plates were incubated for 72 hr at 37°C, 5% CO2 and 95% humidity, then the media was removed and replaced by 35 μl of 44 μM resazurin in DMEM without FCS. The plates were incubated for another 4-6 hr at 37°C, 5% CO2 and 95% humidity before reading on an EnVision® Plate Reader (PerkinElmer) using fluorescence excitation/emission settings of 530 nm/595 nm. Determination of the% growth compared to controls (40 μM puromycin as positive and 0.4% DMSO as negative control) was performed in Microsoft® Excel 2010. Statistical analysis including IC50 determination and graphical output was performed in GraphPad Prism® 5 using nonlinear regression variable slope curve fitting.
Background: Alamar Blue is a resazurin reagent that responds to reducing activity.

The test system of data set [2] is Plasmodium falciparum strain 3D7. As to the kind of experiment: Plasmodium falciparum growth inhibition imaging assay. In kind it is cell-based. The following applies: for SI (selectivity index): HEK293 IC50 value divided by P. falciparum IC50 value; for IC50: P. falciparum 3D7, 72 hr, n = 3. Here is the method: In vitro parasite culture was maintained in RPMI with 10 mM Hepes (Life Technologies), 50 μg/ml hypoxanthine (Sigma) and 5 mg/ml AlbuMAX II® (Life Technologies). Human O + erythrocytes were obtained from the Australian Red Cross Blood Service (Agreement No: 13-04QLD-09). The parasites were maintained at 2-8% parasitaemia (% P) at 5% haematocrit (% H), incubated at 37°C, 5% CO2, 5%O2 and 90% N2 and 95% humidity. The well-established P. falciparum imaging assay was modified to allow assessment of chemical rescue with CoA. In brief, sorbitol (5% w/v) synchronization was performed twice, approximately 8 hr apart, on each synchronization day for two consecutive ring cycles, i.e., on day 1 and 3 of assay preparation. On day 2 the culture was split to approximately 2% trophozoite parasitaemia. On day 4 the culture was split to 1-1.5% trophozoite parasitaemia, which yielded approximately 8% ring parasitaemia after 48 hr (on day 5, i.e., the day of the assay set-up). Compound stocks (10 mM in 100% DMSO) were diluted 1:25 in sterile water, less than 24 hr prior to use. An additional 1:10 dilution was performed, resulting in a 1:250 overall compound dilution and a final DMSO concentration of 0.4%. For initial screening, compounds were tested at a final 2 μM concentration. For dose response curves of the active compounds, a semi-logarithmic serial dilution (containing three data points per log) was prepared at 40 μM top concentration for test compounds and 2 μM for the positive control, artemisinin. The known P. falciparum CoA synthesis inhibitor, panthenol, was prepared as a 100 mM solution in 4% DMSO. The final concentration of the dose response curve of panthenol started at 10 mM and was serially diluted down to 100 nM. CoA was dissolved in water. The final CoA concentration for optimal rescue results was determined for each CoA batch and ranged between 0.8-2 mM. Five μl of the 1:25 diluted test compound or control solutions were added to 384-well CellCarrier imaging plates (PerkinElmer). For the chemical rescue, 5 μl of CoA solution were added to ‘rescue’ wells and 5 μl water to all control and reference wells, respectively. Parasite culture was added to a final concentration of 1% parasitaemia (% P) and 0.3% haematocrit (% H). Plates were incubated for 72 hr at 37°C, 5% CO2 and 95% humidity. On day 8 the permeabilization and nuclear staining buffer was prepared in PBS containing 10 μg/ml saponin, 0.01% triton X, 5 mM EDTA (all: Sigma) and 0.5 μg/ml 4′,6-diamidino-2-phenylindole (DAPI; Life Technologies). The plates were left for at least 4 hr (typically overnight), before confocal imaging on an Opera™ High Content Screening Platform (PerkinElmer) at 405 nm excitation with a 20x water objective. Automated primary image analysis was performed concurrent with the imaging process, utilizing an Acapella® software (PerkinElmer) script to determine the number of parasites based on object size and fluorescence intensity. Determination of the % growth compared to controls (2 μM artemisinin as positive and 0.4% DMSO as negative control) was performed in Microsoft® Excel 2010. Statistical analysis including IC50 determination and graphical output was performed in GraphPad Prism® 5 using non-linear regression variable slope curve fitting.

In data set [3] the test system is HEK293 cells. As to the kind of experiment: CoA chemical rescue on HEK293 cells. Conditions: dose response with and without CoA, n = 2. Format: cell-based, human. As to the method:
as §1
as §2, with “Plates” for “Test compounds were prepared as described above, to give a top final test concentration of 40 μM, 0.4% DMSO. Plates”

By IC50 is commonly meant the midpoint of a concentration-inhibition curve. The low end stands for higher potency, the high end for lower potency.

On to `CCOc1ccc(Nc2c3ccccc3nc3ccccc23)cc1.Cl` [MMV000304/Amb636705], for which the IC50 was 1 µM with HEK293 cells [1] and 1.21 µM in data set [2]. Moreover, the entries for the “SI (selectivity index)” value in data set [2] and in data set [2] (listed as MMV000304) were 0.8 and “no parasite specificity”, respectively. For the same molecule, the “cytotoxic effect on HEK293 cells upon CoA addition” value in the data set on HEK293 cells [3] is given as “reduced upon CoA addition”.
`CCc1ccc(Nc2cc(C)c3ccc(O)cc3n2)cc1.Cl` [MMV000570/C614-0191] returned an IC50 in the data set on HEK293 cells [1] of around 40 µM. In data set [2], the “SI (selectivity index)” value is given as ~ 54 and inhibition was half-maximal at 0.74 µM (IC50).
Consider `COc1ccc2c(=O)cc(C(Cl)(Cl)Cl)oc2c1` [MMV665820/5534045], for which the IC50 with HEK293 cells [1] is 3.6 µM. Moreover, in data set [2], the “SI (selectivity index)” value was 6.2 and the half-maximal inhibitory concentration (IC50) turned out to be 0.58 µM.
In the data set with HEK293 cells [1], `CC1=CC(=O)C(C(C)C)=C/C1=N/OS(=O)(=O)c1ccccc1` [STK 740987] returned an IC50 above 40 µM. Besides, in data set [2], the “SI (selectivity index)” value is recorded as above 105 and the IC50 was found to be 0.38 µM.
For `CC(=O)c1ccc2c3c(onc13)-c1ccccc1C2=O` [Amb3377585] the same measures were 2.75 µM, 18 and 0.15 µM.
As for `CC(C)=NOC(=O)c1c(C)noc1-c1snnc1C` [SPB03400], the figures for the IC50 (in the data set on HEK293 cells [1]; in data set [2]) were above 40 µM and 0.45 µM, respectively.
`Cc1csc(Sc2ncnc3sccc23)n1` [Amb180780]: the 50% inhibitory concentration (IC50) with HEK293 cells [1] is around 40 µM; in data set [2], 0.12 µM. In addition, the “SI (selectivity index)” value in data set [2] is recorded as ~ 333.
